We go through ten compounds from PubChem BioAssay AID1963832 (Molecular Pharmacology Branch, DTP, NCI, 2024).

The subject of this experiment is 885724-159-R-J1-PDC complex spheroid viability. Nature of the experiment: Anticancer human tumor 885724-159-R-J1-PDC patient-derived pancreatic adenocarcinoma cell line growth inhibition [POLQ]. The following applies: for viability, T/C: stronger effect = lower value. As to the method:
Multicellular complex tumor spheroid response to Polymerase (POL) inhibitors (novobiocin, ART-558, RP6685) in combination with a variety of drugs and investigational agents in selected tumor cell lines
The POL inhibitors (novobiocin, ART-558, and RP6685) were evaluated both individually and in combination with standard of care and investigational anticancer small molecules within a complex spheroid model of solid tumors. . Complex spheroids include a stromal component modeled by human endothelial cells (HUVEC) and fibroblasts modeled by human mesenchymal stem cells (MSCs). The concentration ranges selected for each drug and investigational agent were based upon clinically achievable concentrations if the clinical Cmax of the agent was known.
Compounds. The drugs and investigational agents: novobiocin (NSC847541), ART-558 (NSC835418), RP-6685 (NSC848927), peposertib (NSC802822), ceralasertib (NSC780249), elimusertib (NSC800525), camonsertib (NSC841442), AZD-1390 (NSC803789), olaparib (NSC753686), talazoparib (NSC767125), rucaparib (NSC756644), sotorasib (NSC818433), MRTX-1133 (NSC836407), SN-38 (NSC673596), topotecan (NSC609699), epotoside (NSC141540), doxorubicin (NSC123127), gemcitabine (NSC613327), 5-fluorouracil (NSC19893), paclitaxel (NSC125973), vemurafenib (NSC761431), MSA-2 (NSC828583), SN-011 (NSC837082), adavosertib (NSC754352), prexasertib (NSC758257), carboplatin (NSC241240) and oxaliplatin (NSC266046), were obtained from the National Cancer Institute (NCI) Developmental Therapeutics Program Chemical Repository (21). The FDA-approved anticancer drug set is available from the Developmental Therapeutics Program at https://dtp.cancer.gov/organization/dscb/obtaining/. […] The stock solutions were prepared in dimethyl sulfoxide (DMSO, Sigma-Aldrich, St. Louis, MO, cat. D2650), except for the platinum compounds which were prepared in saline (Quality Biological, Gaithersburg, MD, cat. 114-055-101), at 800-fold the tested concentration and stored at -70 degrees C prior to their use. All drugs and investigational agents were tested over a range starting from a high concentration at or near the clinical Cmax and decreasing in half-log increments. If the clinical Cmax for an agent had not been determined, the highest concentration tested was 10 microM, except for SN-38, which was tested at a high concentration of 1 microM.
Cell Culture. All cells were maintained in an incubator at 37 degrees C and 5% CO2 with 95% humidity. The PDC lines were cultured according to standard operating procedures established by the NCI PDMR (https://pdmr.cancer.gov). Table 3 of the manuscript, lists the cell lines along with the number of the three cell types plated to form the mct-spheroids and media for tumor cell growth. After thawing, all PDC lines, except 997537-175-T-J1-PDC and 415267-285-R-J2-PDC, were cultured in Matrigel-coated flasks prepared with a working solution of 1X Ham's F-12 nutrient mix, without supplementation (Thermo Fisher Scientific, cat. 11765054), 100 U/mL penicillin-streptomycin (Thermo Fisher Scientific, cat. 15140122), and 2.5% Matrigel (Corning Inc., Corning, NY, cat. 354248) for the first three passages. The two PDC lines 997537-175-T-J1-PDC and 415267-285-R-J2-PDC were cultured on uncoated flasks. The 857933-349-R-J2-PDC line was cultured in 6C/Colon 1B media containing advanced DMEM/F-12 (Thermo Fisher Scientific, cat. 12634028), 10 mM HEPES (Thermo Fisher Scientific, cat. 15630080), 1X GlutaMAX supplement (Thermo Fisher Scientific, cat. 35050061), 0.1 mg/mL primocin (InvivoGen, San Diego, CA, cat. ant-pm-2), 10% defined fetal bovine serum, heat inactivated (HyClone Laboratories Inc., Logan, UT, cat. SH30070.03HI), 50% L-WRN conditioned media (ATCC, cat. CRL-3276), 1.25 mM N-Acetyl-L-cysteine (Sigma-Aldrich, cat. A9165), 10 mM nicotinamide (Sigma-Aldrich, cat. N0636), 1X B-27 supplement (Thermo Fisher Scientific, cat. 17504044), 1X N-2 supplement (Thermo Fisher Scientific, cat. […]

Where [1] appears, read: compound alone, run of 12/05/2023.

A word on the viability, T/C: it is the ratio of treated to control. Usually IC50 stands for the concentration needed to halve the response being measured.

Structures are written as SMILES. “And” between values parts separate entries of the source, which are not always exact repeats. Equal entries are not always repeated.
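Further: spheroids exposed to compounds for 7 days.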

Take `COc1cc(C2c3cc4c(cc3C(OC3OC5COC(C)OC5C(O)C3O)C3COC(=O)C23)OCO4)cc(OC)c1O` (stereo not given): the viability, T/C is 94.8% and 95.3% and 106% (compound 0.0316 µM); 86.5% and 92.2% and 82.3% (compound 0.1 µM); 75.8% and 85.9% and 68.5% (compound 0.316 µM); 64.5% (2×) and 73% (compound 1 µM); 58.4% and 57.7% and 55.9% (compound 3.16 µM); 48% and 53.2% and 42.6% (compound 10 µM). Further, the IC50 (curve of compound) is 8.15 µM and > 10 µM and 4.59 µM.

Take `COc1ccc([C@@H](O)c2cc(-c3ncnc4cc(N5CCOCC5)ccc34)c(F)cc2Cl)nn1`: the viability, T/C (compound 0.0316 µM) was 94% and 96% and 96.8%; the viability, T/C (compound 0.1 µM) is 79.5% and 83.5% and 87.4%; the viability, T/C (compound 0.316 µM) was 86.8% and 78% and 76%; the viability, T/C (compound 1 µM) is 71.7% and 68.9% and 70.9%; the viability, T/C (compound 3.16 µM) is 59% and 58.1% and 55%; the viability, T/C (compound 10 µM) was 35.5% and 33% and 38.2%. Further, the IC50 (curve of compound) was 4.86 µM and 4.08 µM and 4.45 µM.

For the compound `COc1cccc(OCCCN)c1-c1cc(Nc2cnc(C#N)cn2)n[nH]1`, the viability, T/C is 62.5% and 76.4% and 69.2% (compound 0.00316 µM); 46.4% and 49.5% and 54.3% (compound 0.01 µM); 45.3% and 44.2% and 49.7% (compound 0.0316 µM); 42.2% and 45.4% and 51.1% (compound 0.1 µM); 44.9% and 42.6% and 47% (compound 0.316 µM); 44.4% and 47.1% and 48% (compound 1 µM). In addition, the IC50 (curve of compound) is 0.00782 µM and 0.00969 µM and 0.0326 µM.

Turning to `COc1cccc2c1C(=O)c1c(O)c3c(c(O)c1C2=O)CC(O)(C(=O)CO)CC3OC1CC(N)C(O)C(C)O1` (stereo not given), the viability, T/C is 72.9% and 74.1% and 66.6% (compound 0.0316 µM); 54.6% and 56% and 97.5% (compound 0.1 µM); 30.8% and 36.2% and 31.9% (compound 0.316 µM); 11.2% and 13.3% and 8.99% (compound 1 µM); 5.6% and 5.49% and 5.32% (compound 3.16 µM); 7.5% and 6.14% and 6.82% (compound 10 µM). In addition, the IC50 (curve of compound) was 0.128 µM and 0.146 µM and 0.209 µM.

In the case of `Cc1cccc(N(C)C(=O)C2C(O)CCN2c2nc(C)cc(C(F)(F)F)c2C#N)c1` (stereo not given), the viability, T/C was 96.2% [middle of 13 runs] (compound 0.0316 µM); 97.6% [middle of 13 runs] (compound 0.1 µM); 102% [middle of 13 runs] (compound 0.316 µM); 100% [middle of 13 runs] (compound 1 µM); 99.2% [middle of 13 runs] (compound 3.16 µM). Moreover, the IC50 by setting is: (compound alone, run of 11/27/2023) greater than 10 µM; under setting [1], greater than 10 µM.

In the case of `Cn1ncnc1[C@H]1c2n[nH]c(=O)c3cc(F)cc(c23)N[C@@H]1c1ccc(F)cc1`, the viability, T/C reads like this: (compound 0.000316 µM) 96.8% and 84.9% and 99.5%; (compound 0.001 µM) 94.3% and 95.2% and 99.7%; (compound 0.00316 µM) 91.6% and 90.1% and 98.2%; (compound 0.01 µM) 103% and 94.9% and 99.3%; (compound 0.0316 µM) 97.7% and 93.4% and 103%; (compound 0.1 µM) 83.7% and 84.4% and 85.2%. Moreover, under “curve of compound”, the concentration for half-maximal inhibition (IC50) was greater than 0.1 µM.

As to `Nc1ccc(C#CCN(C(=O)Cc2ncc(C(F)(F)F)cc2C(F)(F)F)c2ccc(F)cc2)nn1`, the viability, T/C runs as follows: (compound 0.0316 µM) 94.8% [middle of 13 runs]; (compound 0.1 µM) 93.2% [middle of 13 runs]; (compound 0.316 µM) 97% [middle of 13 runs]; (compound 1 µM) 96.2% [middle of 13 runs]; (compound 3.16 µM) 97.6% [middle of 13 runs]; (compound 10 µM) 105% [middle of 12 runs]. Also, under setting [1], the IC50 is greater than 10 µM.

Turning to `Nc1ccn(C2OC(CO)C(O)C2(F)F)c(=O)n1` (stereo not given), the viability, T/C by setting is: (compound 0.0316 µM) 62.8% and 66.8% and 60.1%; (compound 0.1 µM) 51.6% and 57% and 53.9%; (compound 0.316 µM) 50.6% and 51% and 51.5%; (compound 1 µM) 51.7% and 53% (2×); (compound 3.16 µM) 51.6% and 53.4% and 54.6%; (compound 10 µM) 46% and 42.3% and 39.7%. In addition, the IC50 (curve of compound) is 0.56 µM and 1.16 µM and 4.38 µM.

In the case of `O=C(c1cc(Cc2n[nH]c(=O)c3ccccc23)ccc1F)N1CCN(C(=O)C2CC2)CC1`, the viability, T/C (compound 0.0316 µM) was 103% and 105% (2×); the viability, T/C (compound 0.1 µM) is 97.6% and 102% and 98%; the viability, T/C (compound 0.316 µM) is 97.1% and 109% and 95.8%; the viability, T/C (compound 1 µM) is 94% and 107% and 93.8%; the viability, T/C (compound 3.16 µM) was 93.9% and 95.7% and 87.6%; the viability, T/C (compound 10 µM) was 78.1% and 78.9% and 82.2%. Besides, the IC50 (curve of compound) was greater than 10 µM.

Regarding `O=c1[nH]cc(F)c(=O)[nH]1`, the viability, T/C was 98.3% and 96.3% and 103% (compound 0.0316 µM); 102% and 95.3% and 108% (compound 0.1 µM); 103% and 89.2% and 105% (compound 0.316 µM); 87.9% and 98.7% and 102% (compound 1 µM); 87.6% and 89.9% and 91.7% (compound 3.16 µM); 75% and 75.8% and 71.4% (compound 10 µM). The IC50 (curve of compound) is greater than 10 µM.
